For 21 molecules, IC50 results are on record in US9051310B2, “Nicotinamide derivative or salt thereof” (FUJIFILM Corporation, priority 2011, dated 2015).

For assay [1], the system named is THP-1 cells (TNFα secretion on human IgG-coated plate). Description: TNFα generation assay. It counts as cell-based. The conditions noted are these: IFN-γ differentiated THP-1 cells, 7 hours, AlphaLISA, read-out: IC50 of TNFα generation inhibitory activity. The gist of the method:
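Secreted TNFα was measured by AlphaLISA after 7 h of culture on human IgG-coated wells (coating at 10 μg/ml), with 5×10^4 cells/well. Before plating, the cells had been treated with compound for 30 min at room temperature. The cells were macrophage-like THP-1, produced by a 2-day exposure to 10 ng/ml IFN-γ.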
(In Alpha technology, singlet oxygen from a donor bead excites a nearby acceptor bead.)

Assay [2] deals with T1, glutathione S-transferase (GST)-linked full-length human Syk protein (Homo sapiens, UniProt P43405).
T1 construct: glutathione S-transferase (GST)-linked full-length human Syk protein; purchased Carna Biosciences; host or cells: Baculovirus expression system
Description: Syk enzyme assay. The format is biochemical. Particulars: 0.83 nM Syk, time-resolved fluorescence; read-out: IC50 of Syk-inhibitory activity. The method in brief:
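Phosphotyrosine on a biotin-peptide substrate (0.5 μM) was read by time-resolved fluorescence at 615 and 665 nm with Eu-anti-pTyr antibody and APC-streptavidin after 1 h EDTA stop.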

Each structure is given as a SMILES string.

Take `Cc1nn(C)c2ncc(Nc3nc(N[C@@H]4CCCC[C@@H]4N)c(F)cc3C(N)=O)cc12` [Example 2-239, 6-(((1R,2S)-2-aminocyclohexyl)amino)-2-((1,3-dimethyl-1H-pyrazolo[3,4-b]pyridin-5-yl)amino)-5-fluoronicotinamide]: the values for the IC50 in assay [1] and in assay [2] were 130 to 200 nM and 10 to 50 nM, respectively.
Regarding `C[C@H](N)[C@H](Nc1nc(Nc2cccc(-n3nccn3)c2)c(C(N)=O)cc1F)C1CC1` [Example 2-479, 2-((3-(2H-1,2,3-triazol-2-yl)phenyl)amino)-6-(((1R,2S)-2-amino-1-cyclopropylpropyl)amino)-5-fluoronicotinamide], the IC50 in assay [1] was 65 to 130 nM; in assay [2] it was < 10 nM.
Taken in the same sequence, the figures for `C[C@H](N)[C@H](Nc1nc(Nc2cnc(N3CCOCC3)c(F)c2)c(C(N)=O)cc1F)c1cccs1` [Example 2-508, 6-(((1S,2S)-2-amino-1-(thiophen-2-yl)propyl)amino)-5-fluoro-2-((5-fluoro-6-morpholinopyridin-3-yl)amino)nicotinamide] were 65 to 130 nM and < 10 nM.
As to `CCCC[C@@H](Nc1nc(Nc2cnc3c(c2)c(OC)nn3C)c(C(N)=O)cc1F)[C@H](C)N` [Example 2-254, 6-(((2S,3R)-2-aminoheptan-3-yl)amino)-5-fluoro-2-((3-methoxy-1-methyl-1H-pyrazolo[3,4-b]pyridin-5-yl)amino)nicotinamide], the IC50 is 130 to 200 nM in assay [1] and < 10 nM in assay [2].
Taken in the same sequence, the figures for `CC[C@H](N)[C@@H](CC)Nc1nc(Nc2ccc3c(cnn3CCOC)c2)c(C(N)=O)cc1F` [Example 2-266, 6-(((3R,4S)-4-aminohexan-3-yl)amino)-5-fluoro-2-((1-(2-methoxyethyl)-1H-indazol-5-yl)amino)nicotinamide] were 65 to 130 nM and < 10 nM.
Taken in the same sequence, the figures for `COc1nn(C)c2ccc(Nc3nc(N[C@@H]4CCOC[C@@H]4N)c(F)cc3C(N)=O)cc12` [Example 2-210, 6-(((3R,4R)-3-aminotetrahydro-2H-pyran-4-yl)amino)-5-fluoro-2-((3-methoxy-1-methyl-1H-indazol-5-yl)amino)nicotinamide] were < 65 nM and < 10 nM.
Taken in the same sequence, the figures for `COc1cccc(Nc2nc(N[C@H](C3CCC3)[C@H](C)N)c(F)cc2C(N)=O)c1` [Example 2-27, 6-(((1R,2S)-2-amino-1-cyclobutylpropyl)amino)-5-fluoro-2-((3-methoxyphenyl)amino)nicotinamide] were 65 to 130 nM and < 10 nM.
Consider `CC[C@@H](Nc1nc(Nc2ccc(C)c(C)c2)c(C(N)=O)cc1F)[C@H](C)N` [Example 2-477, 6-(((2S,3R)-2-aminopentan-3-yl)amino)-2-((3,4-dimethylphenyl)amino)-5-fluoronicotinamide], for which the IC50 was 130 to 200 nM in assay [1] and < 10 nM in assay [2].
Taken in the same sequence, the figures for `COc1ncc(Nc2nc(N[C@@H]3CCOC[C@@H]3N)c(F)cc2C(N)=O)cc1-n1ccnn1` [Example 2-215, 6-(((3R,4R)-3-aminotetrahydro-2H-pyran-4-yl)amino)-5-fluoro-2-((6-methoxy-5-(1H-1,2,3-triazol-1-yl)pyridin-3-yl)amino)nicotinamide] were 130 to 200 nM and 10 to 50 nM.
Consider `C[C@H](N)[C@H](Nc1nc(Nc2ccc3ncccc3c2)c(C(N)=O)cc1F)C1CCC1` [Example 2-8, 6-(((1R,2S)-2-amino-1-cyclobutylpropyl)amino)-5-fluoro-2-(quinolin-6-ylamino)nicotinamide], for which the IC50 was < 65 nM in assay [1] and < 10 nM in assay [2].
Taken in the same sequence, the figures for `CNc1ncc(Nc2nc(N[C@@H]3CCCC[C@@H]3N)c(F)cc2C(N)=O)cc1F` [Example 2-273, 6-(((1R,2S)-2-aminocyclohexyl)amino)-5-fluoro-2-((5-fluoro-6-(methylamino)pyridin-3-yl)amino)nicotinamide] were 65 to 130 nM and < 10 nM.
For `Cc1ccc(Nc2nc(N[C@@H]3CCCC[C@@H]3N)c(F)cc2C(N)=O)cc1C` [Example 2-436, 6-(((1R,2S)-2-aminocyclohexyl)amino)-2-((3,4-dimethylphenyl)amino)-5-fluoronicotinamide], the IC50 was 130 to 200 nM in assay [1] and < 10 nM in assay [2].
Regarding `CC[C@H](N)[C@@H](C)Nc1nc(Nc2cccc3c2cnn3CCOC)c(C(N)=O)cc1F` [Example 2-311, 6-(((2R,3S)-3-aminopentan-2-yl)amino)-5-fluoro-2-((1-(2-methoxyethyl)-1H-indazol-4-yl)amino)nicotinamide], the IC50 in assay [1] was 130 to 200 nM; in assay [2] it was < 10 nM.
Taken in the same sequence, the figures for `CCn1ncc2c(Nc3nc(N[C@@H]4CCOC[C@@H]4N)c(F)cc3C(N)=O)cc(F)cc21` [Example 2-370, 6-(((3R,4R)-3-aminotetrahydro-2H-pyran-4-yl)amino)-2-((1-ethyl-6-fluoro-1H-indazol-4-yl)amino)-5-fluoronicotinamide] were 130 to 200 nM and < 10 nM.
As for `Cc1ccc(Nc2nc(N[C@@H]3CCOC[C@@H]3N)c(F)cc2C(N)=O)cn1` [Example 2-219, 6-(((3R,4R)-3-aminotetrahydro-2H-pyran-4-yl)amino)-5-fluoro-2-((6-methylpyridin-3-yl)amino)nicotinamide], the IC50 in assay [1] is 130 to 200 nM; in assay [2], 10 to 50 nM.
For `C[C@H](N)[C@H](Nc1nc(Nc2ccnc(N3CCOCC3)c2F)c(C(N)=O)cc1F)C1CC1` [Example 2-233, 6-(((1R,2S)-2-amino-1-cyclopropylpropyl)amino)-5-fluoro-2-((3-fluoro-2-morpholinopyridin-4-yl)amino)nicotinamide], the IC50 lay in the range of 130 to 200 nM in assay [1] and 10 to 50 nM in assay [2].
Taken in the same sequence, the figures for `CC[C@@H](Nc1nc(Nc2cc(Cl)c3c(cnn3C)c2)c(C(N)=O)cc1F)[C@H](C)N` [Example 2-148, 6-(((2S,3R)-2-aminopentan-3-yl)amino)-2-((7-chloro-1-methyl-1H-indazol-5-yl)amino)-5-fluoronicotinamide] were 65 to 130 nM and < 10 nM.
In the case of `COc1cc(Nc2nc(N[C@H](C3CC3)[C@H](C)N)c(F)cc2C(N)=O)ccc1C` [Example 2-49, 6-(((1R,2S)-2-amino-1-cyclopropylpropyl)amino)-5-fluoro-2-((3-methoxy-4-methylphenyl)amino)nicotinamide], the results for the IC50 in assay [1] and in assay [2] were 130 to 200 nM and < 10 nM, respectively.
Taken in the same sequence, the figures for `Cc1cnn(-c2cncc(Nc3nc(N[C@H](C4CC4)[C@H](C)N)c(F)cc3C(N)=O)c2)c1` [Example 2-519, 6-(((1R,2S)-2-amino-1-cyclopropylpropyl)amino)-5-fluoro-2-((5-(4-methyl-1H-pyrazol-1-yl)pyridin-3-yl)amino)nicotinamide] were 130 to 200 nM and < 10 nM.
Taken in the same sequence, the figures for `CCC[C@@H](Nc1nc(Nc2cc(F)c3c(c2)c(OC)nn3C)c(C(N)=O)cc1F)[C@H](C)N` [Example 2-153, 6-(((2S,3R)-2-aminohexan-3-yl)amino)-5-fluoro-2-((7-fluoro-3-methoxy-1-methyl-1H-indazol-5-yl)amino)nicotinamide] were 130 to 200 nM and < 10 nM.
Taken in the same sequence, the figures for `COc1nn(C)c2ncc(Nc3nc(N[C@@H]4CCOC[C@@H]4N)c(F)cc3C(N)=O)cc12` [Example 2-334, 6-(((3R,4R)-3-aminotetrahydro-2H-pyran-4-yl)amino)-5-fluoro-2-((3-methoxy-1-methyl-1H-pyrazolo[3,4-b]pyridin-5-yl)amino)nicotinamide] were 130 to 200 nM and < 10 nM.
